Measurements published in ChEMBL document CHEMBL1201862, “PubChem BioAssay data set” (2004).
Active and inactive are the calls of the source.

Legend:
[1] = molecular target: T1, Replicative DNA helicase DnaB (Mycobacterium tuberculosis, UniProt P9WMR3); experiment: DnaB intein splicing inhibitors, dose response, biochemical, cell-free fluorescence (AID 449749); type: functional
T1 sequence (P9WMR3 whole entry): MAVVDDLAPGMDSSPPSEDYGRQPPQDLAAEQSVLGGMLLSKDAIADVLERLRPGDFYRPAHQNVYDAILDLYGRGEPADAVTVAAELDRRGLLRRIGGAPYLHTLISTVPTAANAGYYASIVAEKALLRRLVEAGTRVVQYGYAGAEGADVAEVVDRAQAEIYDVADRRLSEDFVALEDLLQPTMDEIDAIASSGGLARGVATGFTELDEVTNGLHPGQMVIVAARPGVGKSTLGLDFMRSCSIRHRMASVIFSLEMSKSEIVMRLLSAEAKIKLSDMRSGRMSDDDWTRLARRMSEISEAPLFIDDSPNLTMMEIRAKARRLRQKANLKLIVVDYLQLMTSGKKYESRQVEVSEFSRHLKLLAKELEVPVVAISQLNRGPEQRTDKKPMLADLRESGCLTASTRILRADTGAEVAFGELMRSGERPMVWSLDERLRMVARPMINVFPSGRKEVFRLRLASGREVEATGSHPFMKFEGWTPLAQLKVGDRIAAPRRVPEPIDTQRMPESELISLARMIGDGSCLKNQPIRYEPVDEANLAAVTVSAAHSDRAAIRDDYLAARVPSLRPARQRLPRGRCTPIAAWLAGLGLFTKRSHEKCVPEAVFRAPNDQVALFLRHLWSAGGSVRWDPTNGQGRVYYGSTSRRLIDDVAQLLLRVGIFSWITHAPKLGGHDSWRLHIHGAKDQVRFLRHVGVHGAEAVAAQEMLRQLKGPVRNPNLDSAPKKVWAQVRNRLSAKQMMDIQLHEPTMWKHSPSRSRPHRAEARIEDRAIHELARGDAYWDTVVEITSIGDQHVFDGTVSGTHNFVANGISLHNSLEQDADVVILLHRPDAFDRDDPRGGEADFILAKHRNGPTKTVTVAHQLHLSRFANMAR

Caspase-6 = molecular target: T2, Caspase-6 (Homo sapiens, UniProt P55212); experiment: inhibition of CASP6 peptide cleavage – biochemical, VEID-R110 fluorescence, cherry-pick, dose response (AID 720632)
T2 sequence (P55212 whole entry): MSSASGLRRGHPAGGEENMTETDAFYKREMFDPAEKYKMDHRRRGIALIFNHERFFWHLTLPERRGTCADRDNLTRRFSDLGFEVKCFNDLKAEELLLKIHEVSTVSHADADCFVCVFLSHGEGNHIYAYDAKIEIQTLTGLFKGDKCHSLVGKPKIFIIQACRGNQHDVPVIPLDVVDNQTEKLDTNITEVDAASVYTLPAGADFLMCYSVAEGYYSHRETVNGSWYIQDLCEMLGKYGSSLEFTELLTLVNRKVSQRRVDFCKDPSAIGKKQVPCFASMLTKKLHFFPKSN

[2] = molecular target: Dual specificity tyrosine-phosphorylation-regulated kinase 1A (Rattus norvegicus, UniProt Q63470); type: biochemical, Homo sapiens
[3] = molecular target: Tyrosyl-DNA phosphodiesterase 2 (Homo sapiens, UniProt O95551); experiment: potency against TDP2 phosphodiesterase activity – biochemical, epi absorbance, IC50, dose response (AID 743297)
[4] = bead-based luminescence quenchers, dual-tagged ARNT – biochemical, AlphaScreen, cherry-pick, artefact control for ARNT-TACC3 interaction inhibitor project, dose response (AID 651705); type: functional;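 also: AlphaScreen bead proximity signal that flags compounds interfering with the detection technology; potency reflects signal decrease which marks the compound as an assay artifact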
P388/ADR = experiment: cells; type: functional; conditions: Mus musculus
SN12K1 = experiment: cells; type: functional; conditions: Homo sapiens
Protein RecA = molecular target: T3, Protein RecA (Mycobacterium tuberculosis, UniProt P9WHJ3); experiment: Fluorescence Cell-Free Homogeneous Dose Retest to Identify Inhibitors of RecA-Intein Splicing Activity. [Related pubchem assays (depositor defined):AID2097, AID2223, AID489010, AID492950]; type: functional
T3 sequence (P9WHJ3 whole entry): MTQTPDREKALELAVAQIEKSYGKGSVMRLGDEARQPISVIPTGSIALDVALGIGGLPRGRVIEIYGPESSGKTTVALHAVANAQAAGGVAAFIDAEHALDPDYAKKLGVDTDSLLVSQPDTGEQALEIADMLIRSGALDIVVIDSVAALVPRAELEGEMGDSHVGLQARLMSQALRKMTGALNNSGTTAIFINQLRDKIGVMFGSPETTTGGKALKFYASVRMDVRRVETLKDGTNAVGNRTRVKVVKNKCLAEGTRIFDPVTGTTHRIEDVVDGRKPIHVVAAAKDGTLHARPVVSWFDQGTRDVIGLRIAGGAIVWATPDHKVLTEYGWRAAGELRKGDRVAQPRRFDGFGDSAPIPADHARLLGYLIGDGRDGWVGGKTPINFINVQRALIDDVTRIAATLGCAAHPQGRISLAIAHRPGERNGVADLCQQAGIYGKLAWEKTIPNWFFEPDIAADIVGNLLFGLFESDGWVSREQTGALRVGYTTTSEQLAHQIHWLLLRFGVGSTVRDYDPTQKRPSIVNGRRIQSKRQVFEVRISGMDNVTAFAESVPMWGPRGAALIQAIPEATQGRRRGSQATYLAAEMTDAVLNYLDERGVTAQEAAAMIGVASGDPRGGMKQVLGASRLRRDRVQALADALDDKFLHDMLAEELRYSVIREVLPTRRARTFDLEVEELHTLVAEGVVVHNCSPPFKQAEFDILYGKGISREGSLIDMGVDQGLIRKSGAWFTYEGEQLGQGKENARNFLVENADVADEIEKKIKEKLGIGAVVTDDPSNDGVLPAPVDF

P388 = experiment: cells; type: functional; conditions: Mus musculus
[5] = molecular target: T4, DNA repair protein RAD52 homolog (Homo sapiens, UniProt P43351); type: functional, biochemical
T4 sequence (P43351 whole entry): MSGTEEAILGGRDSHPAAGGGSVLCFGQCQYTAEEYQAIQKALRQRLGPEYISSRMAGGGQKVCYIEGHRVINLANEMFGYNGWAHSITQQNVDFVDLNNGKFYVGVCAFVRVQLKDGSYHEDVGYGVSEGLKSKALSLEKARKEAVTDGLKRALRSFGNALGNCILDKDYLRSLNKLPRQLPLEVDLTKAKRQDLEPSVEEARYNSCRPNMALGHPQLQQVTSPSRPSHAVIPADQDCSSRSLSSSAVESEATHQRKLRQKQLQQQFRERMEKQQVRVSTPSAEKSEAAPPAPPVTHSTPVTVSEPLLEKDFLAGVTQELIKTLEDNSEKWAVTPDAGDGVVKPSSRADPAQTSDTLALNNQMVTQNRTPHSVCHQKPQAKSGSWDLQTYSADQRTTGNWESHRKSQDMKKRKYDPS

[6] = HeLa cell viability loss – plate reader, dry powder, cytotoxicity control, dose response (AID 651946); type: functional, cell-based
[7] = inhibitors of non-replicating M. tuberculosis, dose response, luciferase, dry powder (AID 651620); type: functional; conditions: Mycobacterium tuberculosis
[8] = inhibitors of non-replicating M. tuberculosis, dose response, luciferase, dry powder (AID 651619); type: functional; conditions: Mycobacterium tuberculosis
Paired box protein Pax-8 = Paired box protein Pax-8 (Homo sapiens, UniProt Q06710); experiment: PAX8 transcriptional activity inhibition in RMG-I – RMG-I cells, luciferase, cherry-pick, dose response (AID 687027); type: functional, cell-based;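 also: luciferase reporter driven by Pax8 target thyroperoxidase promoter measured by SteadyGlo luminescence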
[9] = alpha-synuclein stem-loop luciferase translation blockers – H4 neuroglioma cells, luminescence, confirmation (AID 1988); type: functional, cell-based
[10] = general cell-killing toxicity readout – plate reader, dry powder samples, cytotoxicity control for PAX8 inhibitor project, dose response (AID 743021); type: functional, cell-based
[11] = molecular target: T5, Ubiquitin-conjugating enzyme E2 N (Homo sapiens, UniProt P61088); type: functional;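 also: Dose-response confirmation in a TR-FRET assay detecting UBC13-driven polyubiquitin chain formation, inhibition measured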
T5 sequence (P61088 whole entry): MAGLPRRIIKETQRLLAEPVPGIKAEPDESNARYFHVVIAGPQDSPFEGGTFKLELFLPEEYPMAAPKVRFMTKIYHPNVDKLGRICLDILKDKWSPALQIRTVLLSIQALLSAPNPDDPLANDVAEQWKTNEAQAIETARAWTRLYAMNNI

[12] = molecular target: T6, Rac GTPase-activating protein 1 (Homo sapiens, UniProt Q9H0H5); experiment: blockers of MgcRacGAP-driven Rac1 GTP hydrolysis – biochemical, ADP Hunter fluorescence, primary and confirmatory, confirmation (AID 624330); type: functional
T6 sequence (Q9H0H5 whole entry): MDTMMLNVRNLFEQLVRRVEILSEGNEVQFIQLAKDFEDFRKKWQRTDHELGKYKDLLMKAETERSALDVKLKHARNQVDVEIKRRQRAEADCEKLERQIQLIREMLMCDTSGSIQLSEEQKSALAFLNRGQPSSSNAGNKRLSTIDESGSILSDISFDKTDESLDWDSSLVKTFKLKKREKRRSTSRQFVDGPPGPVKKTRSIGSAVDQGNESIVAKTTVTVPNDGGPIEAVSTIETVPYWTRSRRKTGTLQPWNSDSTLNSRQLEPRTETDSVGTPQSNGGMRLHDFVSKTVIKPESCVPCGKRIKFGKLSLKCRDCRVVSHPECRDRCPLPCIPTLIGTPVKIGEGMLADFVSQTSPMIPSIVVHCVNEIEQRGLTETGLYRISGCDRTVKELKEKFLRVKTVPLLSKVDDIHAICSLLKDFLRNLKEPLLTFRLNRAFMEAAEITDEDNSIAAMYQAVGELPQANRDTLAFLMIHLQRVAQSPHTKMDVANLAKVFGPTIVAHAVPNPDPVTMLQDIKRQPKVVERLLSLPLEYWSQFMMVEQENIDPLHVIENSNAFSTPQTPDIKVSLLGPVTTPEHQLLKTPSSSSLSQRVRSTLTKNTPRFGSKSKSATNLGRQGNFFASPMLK

[13] = Luminescence Cell-Based Dose Response HTS to Identify Inhibitors of 5'UTR Stem-Loop Driven Prion Protein mRNA Translation in H4 Neuroglioblastoma Cells. [Related pubchem assays: 1827 (Project Summary), 1813 (Primary HTS)]; type: functional
[14] = luciferase reporter signal suppression in cells – H4 neuroglioma cells, luminescence, dose response (AID 1990); type: functional, cell-based
[15] = viability loss in HeLa cells – cytotoxicity control for MgcRacGAP inhibitor project, dose response (AID 624300); type: functional
[16] = general mammalian cell viability loss – activator set, cherry-pick, cytotoxicity control for miR-122 modulator project, dose response (AID 720690); type: functional, cell-based;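 also: HEK293T human cells scored for general mammalian cytotoxicity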
[17] = viability loss in HEK293 kidney cells – cell-based, cherry-picks, set 5, cytotoxicity control, dose response (AID 1053117); type: functional
[18] = activation of miR-122 Renilla sensor silencing – cell-based, Huh7 psiCHECK-miR122, Renilla luciferase, cherry-picked, dose response (AID 651956); type: functional;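 also: huh7 hepatoma cells stably carrying a psiCHECK-2 miR-122 sensor plasmid; renilla luciferase signal reporting endogenous miR-122 activity after 48 h compound exposure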
[19] = viability loss in A549 lung cancer cells – cell-based, cherry-picks, […], cytotoxicity control, dose response (AID 1053119); type: functional
[20] = inhibition of ADAM10 peptide cleavage – biochemical, FRET peptide substrate, recombinant human ADAM10, selectivity assay for ADAM17 exosite inhibitor project, dose response (AID 743259);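 also: ADAM10 enzyme cleaving a FRET peptide substrate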
[21] = molecular target: Disintegrin and metalloproteinase domain-containing protein 17 (Homo sapiens, UniProt P78536); experiment: exosite inhibitors of ADAM17, dose response, biochemical (AID 743260)
[22] = molecular target: Endoplasmic reticulum aminopeptidase 1 (Homo sapiens, UniProt Q9NZ08); experiment: inhibition of human ERAP1 enzyme activity – biochemical, cherry-pick, set 2, plate reader, dose response (AID 743314)
[23] = molecular target: T7, Oxysterols receptor LXR-beta (Homo sapiens, UniProt P55055); type: functional, cell-based;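 also: agonist activity at LXR measured by a cell-based luminescence readout across a dose range, run as a counterscreen for daf-12 agonists; HEK293 cells with Gal4-LXR fusion and GAL4-driven luciferase reporter; potency for activation of Gal4-LXR reporter so compounds are agonists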
T7 sequence (P55055 whole entry): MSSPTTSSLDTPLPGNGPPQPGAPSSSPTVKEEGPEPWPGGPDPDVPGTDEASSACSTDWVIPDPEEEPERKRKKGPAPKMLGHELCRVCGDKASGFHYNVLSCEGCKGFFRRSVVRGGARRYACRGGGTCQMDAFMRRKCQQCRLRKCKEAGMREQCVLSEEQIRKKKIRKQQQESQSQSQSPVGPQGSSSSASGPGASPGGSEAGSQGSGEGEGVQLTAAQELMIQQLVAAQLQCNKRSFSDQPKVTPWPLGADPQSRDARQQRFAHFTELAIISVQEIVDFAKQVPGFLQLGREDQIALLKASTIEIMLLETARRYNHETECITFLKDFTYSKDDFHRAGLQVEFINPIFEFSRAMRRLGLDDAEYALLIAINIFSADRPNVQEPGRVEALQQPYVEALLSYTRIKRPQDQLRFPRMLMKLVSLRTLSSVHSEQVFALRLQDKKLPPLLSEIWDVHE

Sequence of Endoplasmic reticulum aminopeptidase 1 (Q9NZ08 whole entry, the tested form may be a part): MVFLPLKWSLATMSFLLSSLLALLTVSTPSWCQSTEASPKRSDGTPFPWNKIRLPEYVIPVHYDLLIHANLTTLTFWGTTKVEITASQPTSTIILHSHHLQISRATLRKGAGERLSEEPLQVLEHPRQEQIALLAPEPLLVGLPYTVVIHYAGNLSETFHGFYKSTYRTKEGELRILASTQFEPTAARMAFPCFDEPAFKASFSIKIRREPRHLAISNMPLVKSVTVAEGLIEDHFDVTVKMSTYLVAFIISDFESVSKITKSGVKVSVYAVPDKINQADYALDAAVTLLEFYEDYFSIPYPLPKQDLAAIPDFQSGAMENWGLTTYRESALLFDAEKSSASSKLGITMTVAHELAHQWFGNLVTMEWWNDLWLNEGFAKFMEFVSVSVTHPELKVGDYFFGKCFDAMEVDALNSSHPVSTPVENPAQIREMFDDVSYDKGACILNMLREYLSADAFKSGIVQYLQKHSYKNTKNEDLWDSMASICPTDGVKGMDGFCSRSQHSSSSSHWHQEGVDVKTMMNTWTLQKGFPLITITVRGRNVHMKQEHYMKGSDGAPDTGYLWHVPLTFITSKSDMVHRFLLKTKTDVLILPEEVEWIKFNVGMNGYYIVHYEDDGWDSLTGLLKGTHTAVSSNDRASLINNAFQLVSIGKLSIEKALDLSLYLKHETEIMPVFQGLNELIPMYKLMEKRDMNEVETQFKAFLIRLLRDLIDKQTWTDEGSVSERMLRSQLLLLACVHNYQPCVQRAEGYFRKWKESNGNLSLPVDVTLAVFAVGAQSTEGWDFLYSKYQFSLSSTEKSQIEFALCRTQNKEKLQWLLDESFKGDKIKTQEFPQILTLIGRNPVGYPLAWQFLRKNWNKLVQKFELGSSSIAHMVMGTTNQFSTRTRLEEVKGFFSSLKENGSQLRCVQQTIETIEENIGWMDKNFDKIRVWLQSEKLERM
Sequence of Paired box protein Pax-8 (Q06710 whole entry): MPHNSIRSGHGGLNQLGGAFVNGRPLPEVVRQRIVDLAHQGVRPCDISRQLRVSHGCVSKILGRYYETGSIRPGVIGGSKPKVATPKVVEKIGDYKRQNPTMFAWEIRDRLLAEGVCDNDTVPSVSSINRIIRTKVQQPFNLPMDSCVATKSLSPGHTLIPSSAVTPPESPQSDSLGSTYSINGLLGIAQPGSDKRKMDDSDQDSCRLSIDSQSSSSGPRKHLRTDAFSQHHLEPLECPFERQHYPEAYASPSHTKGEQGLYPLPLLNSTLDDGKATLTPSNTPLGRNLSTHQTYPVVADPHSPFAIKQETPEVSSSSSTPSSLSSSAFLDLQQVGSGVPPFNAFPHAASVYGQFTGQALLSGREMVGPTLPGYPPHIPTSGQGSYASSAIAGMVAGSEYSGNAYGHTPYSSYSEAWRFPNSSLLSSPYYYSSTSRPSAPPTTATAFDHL
Sequence of Tyrosyl-DNA phosphodiesterase 2 (O95551 whole entry): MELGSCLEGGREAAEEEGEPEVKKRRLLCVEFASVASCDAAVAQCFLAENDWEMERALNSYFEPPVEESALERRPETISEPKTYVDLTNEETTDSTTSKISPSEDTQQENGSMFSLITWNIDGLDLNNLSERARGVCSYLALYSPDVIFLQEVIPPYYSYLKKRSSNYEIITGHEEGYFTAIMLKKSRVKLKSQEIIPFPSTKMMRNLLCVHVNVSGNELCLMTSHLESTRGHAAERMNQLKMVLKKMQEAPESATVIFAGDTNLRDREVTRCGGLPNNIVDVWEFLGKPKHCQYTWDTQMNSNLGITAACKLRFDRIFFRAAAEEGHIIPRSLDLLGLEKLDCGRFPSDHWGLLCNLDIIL
Sequence of Disintegrin and metalloproteinase domain-containing protein 17 (P78536 whole entry, the tested form may be a part): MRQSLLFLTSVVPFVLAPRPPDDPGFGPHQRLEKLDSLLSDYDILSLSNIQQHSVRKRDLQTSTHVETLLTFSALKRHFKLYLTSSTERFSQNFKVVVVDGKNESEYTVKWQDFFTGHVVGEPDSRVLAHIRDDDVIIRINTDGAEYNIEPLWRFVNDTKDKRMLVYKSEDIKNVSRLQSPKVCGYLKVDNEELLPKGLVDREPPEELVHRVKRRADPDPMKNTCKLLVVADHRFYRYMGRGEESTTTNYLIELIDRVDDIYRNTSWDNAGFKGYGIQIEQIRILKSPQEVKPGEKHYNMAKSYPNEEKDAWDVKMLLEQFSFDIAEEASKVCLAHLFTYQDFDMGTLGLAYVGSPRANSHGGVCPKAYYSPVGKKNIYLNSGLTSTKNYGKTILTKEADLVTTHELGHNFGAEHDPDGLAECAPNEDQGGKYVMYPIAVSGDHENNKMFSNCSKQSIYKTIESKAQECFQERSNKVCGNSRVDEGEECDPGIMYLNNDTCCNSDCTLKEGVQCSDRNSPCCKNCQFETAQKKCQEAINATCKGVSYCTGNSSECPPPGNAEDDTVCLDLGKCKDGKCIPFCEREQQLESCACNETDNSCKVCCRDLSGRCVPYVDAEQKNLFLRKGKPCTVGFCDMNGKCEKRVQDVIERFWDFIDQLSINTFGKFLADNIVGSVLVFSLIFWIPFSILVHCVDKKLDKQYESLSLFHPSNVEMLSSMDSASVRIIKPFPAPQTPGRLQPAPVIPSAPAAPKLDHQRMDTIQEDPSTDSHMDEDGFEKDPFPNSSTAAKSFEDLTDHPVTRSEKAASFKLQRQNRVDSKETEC

COc1cc2c(cc1OC)-c1c3c(cc4c1[C@@H](C2)N(C)CC4)OCO3
AC50 [1]: 26.7 µM (active)
AC50 (Caspase-6): 5.63 µM (active)
AC50 [2]: 2.09 µM (active)
IC50 [3]: 7.83 µM (active)
AC50 [4]: 116 µM (active)
GI50 (P388/ADR): 7.08 µM (inactive)
GI50 (SN12K1): 6.1 µM (inactive)
EC50 (Protein RecA): 0.952 µM (active)
GI50 (P388): 8.53 µM (inactive)
AC50 [5]: 1.18 µM (active)

c1ccc(COc2nnc(-c3ccccc3)o2)cc1
AC50 [6]: > 52 µM (inactive)
IC90 [7]: 8 µM (active)
IC90 [8]: 8 µM (active)

COc1ccc2nc(C)cc(N/N=C/c3cccc(OC)c3O)c2c1
AC50 (Paired box protein Pax-8): 12 µM (active)
EC50 [9]: 7.76 µM (active)
AC50 [10]: 32.4 µM (active)
IC50 [11]: > 20 µM (inactive)
IC50 [12]: 51.8 µM (active)
EC50 [13]: > 120 µM (not active)
EC50 [14]: > 120 µM (not active)
CC50 [15]: 23.4 µM (active)

CO[C@H]1CN(C)C(=O)c2cc(NC(=O)Nc3ccc(Cl)c(Cl)c3)ccc2OC[C@@H](C)NC[C@@H]1C
AC50 [16]: 48 µM (active)
AC50 [17]: > 52 µM (inactive)
AC50 [18]: 21.6 µM (active)
AC50 [19]: > 52 µM (inactive)

O=C(c1cc2c(s1)CCCCCC2)N1CCC2(CC1)OCCO2
IC50 [20]: > 69.5 µM (inactive)
IC50 [21]: > 69.5 µM (inactive)

COc1ccc2c3c([nH]c2c1)[C@H](CO)N(Cc1ccccc1OC)CC31CN(C)C1
AC50 [22]: 14.9 µM (active)

CCCCCc1nnc(NC(=O)C2=COCCO2)s1
EC50 [23]: > 67.6 µM (inactive)
